The text below walks through data of ChEMBL document CHEMBL1129049, “Structure-activity analysis of anandamide analogs: relationship to a cannabinoid pharmacophore” (1996).

Assay [1] is filed under the species Mus musculus. Description: Effective dose required to inhibit spontaneous locomotor activity in mice. It is filed as functional.
For assay [2], the species on record is Mus musculus. Description: Effective dose required to increase tail-flick latency in mice. It is filed as functional. Background: Hot-plate and tail-flick tests time the reaction to a heat stimulus.

In the case of `CCCCC/C=C\C/C=C\C/C=C\C/C=C\CCCC(=O)NCCCO`, the figures for the ED50 in the assay filed under Mus musculus [1] and in the assay filed under Mus musculus [2] were 43.7 µmol/kg and 61.4 µmol/kg, respectively.
On the same counts, the results for `CCCCC/C=C\C/C=C\C/C=C\C/C=C\CCCC(=O)NCCOc1ccccc1` are 23 µmol/kg and 74.1 µmol/kg.
For `CCCCC/C=C\C/C=C\C/C=C\C/C=C\CCCC(=O)NCCO` [ANANDAMIDE], in that order: 50.3 µmol/kg and 17.4 µmol/kg.
As to `CCCCC/C=C\C/C=C\C/C=C\C/C=C\CCCC(=O)NCCCCCO`, the values for the ED50 in the assay filed under Mus musculus [1] and in the assay listed under Mus musculus [2] were 49.5 µmol/kg and 72.9 µmol/kg, respectively.
For `CCCCC/C=C\C/C=C\C/C=C\C/C=C\CCCC(=O)NCCF`, in that order: 57.2 µmol/kg and 190 µmol/kg.
Regarding `CCCCC/C=C\C/C=C\C/C=C\C/C=C\CCCC(=O)N1CCOCC1`, the ED50 – broadly, the dose that gives a 50% effect, or the effect in half of the subjects – in the assay listed under Mus musculus [1] worked out at 20.7 µmol/kg; in the assay filed under Mus musculus [2] it was 25.4 µmol/kg.
In the assay filed under Mus musculus [1], `CCCCC/C=C\C/C=C\C/C=C\C/C=C\CCCC(=O)NCCOC` returned an ED50 of 186 µmol/kg.
As to `CCCCC/C=C\C/C=C\C/C=C\C/C=C\CCC(C)(C)C(=O)NCCO`, the 50% effective dose (ED50) in the assay listed under Mus musculus [1] was 30.5 µmol/kg; in the assay listed under Mus musculus [2], 49.6 µmol/kg.
